According to patent US10906977B2, “Enhancing the therapeutic activity of immune checkpoint inhibitor” (Maine Medical Center Research Institute, priority 2016, dated 2021):

Target: T1, β3-integrin (Homo sapiens, UniProt P05106+P06756)
T1 construct: endogenous in cells; host or cells: HUVEC
Assay: β3-integrin phosphorylation in endothelial cells attached to collagen peptides (Western blot)
Format: cell-based
Conditions: absence of growth factors; FIG. 7C
Experimental: Endothelial cells (HUVECs or HRMVECs) were incubated in serum free media with 1 mM MgCl2, 0.2 mM MnCl2 in the presence of a Src inhibitor, PP2, (10 μM) a P38MAPK inhibitor, SB202190 (10 μM) or vehicle only (DMSO) for 10 min at 37° C. Treated cells were then seeded on to immobilized P-1 and P-2 and lysates were collected at 15 min.
Whole cell and CAM tissue lysates were collected in RIPA buffer supplemented with 1× protease inhibitor and 1× phosphatase inhibitor and were run on polyacrylamide gels using denaturing conditions. Prior to loading the gels, 6× sample buffer was added to each of the lysates (final concentration 1×) and boiled for five minutes. Twenty to 50 μg of total protein were loaded into each lane. […] Gels were run at 60 volts (v) until the dye front passed through the stacking gel, and then the voltage was increased to 100V for the remainder of the separation. Precision Plus protein standards (Bio-Rad) were used to visualize migration. Protein was transferred to nitrocellulose membranes using a wet tank system and blocked for 1 h using 10% non-fat dried milk in tris-buffered saline with 0.01% Tween-20 (TBS-T). […] Membranes were washed 3 times in TBS-T for five minutes. Blots were then incubated with HRP conjugated secondary antibodies (1:15000) in 1% non-fat milk in TBS-T for 1 h. […] Western blot bands were quantified using Image J software based on pixel intensity.

T1 sequence (P05106 27-788): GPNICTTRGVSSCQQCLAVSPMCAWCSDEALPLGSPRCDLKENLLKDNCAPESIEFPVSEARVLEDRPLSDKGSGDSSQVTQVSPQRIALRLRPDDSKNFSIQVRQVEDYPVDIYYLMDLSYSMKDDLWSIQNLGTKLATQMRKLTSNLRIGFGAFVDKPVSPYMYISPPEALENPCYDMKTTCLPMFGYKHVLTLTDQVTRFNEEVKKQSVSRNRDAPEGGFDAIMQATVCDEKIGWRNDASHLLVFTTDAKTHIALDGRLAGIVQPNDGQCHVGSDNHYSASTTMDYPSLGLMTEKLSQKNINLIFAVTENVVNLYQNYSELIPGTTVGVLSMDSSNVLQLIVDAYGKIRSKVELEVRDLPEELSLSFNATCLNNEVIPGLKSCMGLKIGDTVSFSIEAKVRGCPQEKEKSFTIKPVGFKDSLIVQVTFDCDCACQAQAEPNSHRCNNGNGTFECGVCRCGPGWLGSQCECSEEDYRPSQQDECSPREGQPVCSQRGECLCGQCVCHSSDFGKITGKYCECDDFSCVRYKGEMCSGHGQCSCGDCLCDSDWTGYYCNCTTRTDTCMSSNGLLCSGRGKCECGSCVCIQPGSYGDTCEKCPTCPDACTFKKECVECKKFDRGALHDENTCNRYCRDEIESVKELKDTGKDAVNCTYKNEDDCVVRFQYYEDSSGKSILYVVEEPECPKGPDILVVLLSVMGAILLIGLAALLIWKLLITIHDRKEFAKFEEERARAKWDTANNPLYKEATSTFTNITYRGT
T1 sequence (P06756 31-889 limits assumed): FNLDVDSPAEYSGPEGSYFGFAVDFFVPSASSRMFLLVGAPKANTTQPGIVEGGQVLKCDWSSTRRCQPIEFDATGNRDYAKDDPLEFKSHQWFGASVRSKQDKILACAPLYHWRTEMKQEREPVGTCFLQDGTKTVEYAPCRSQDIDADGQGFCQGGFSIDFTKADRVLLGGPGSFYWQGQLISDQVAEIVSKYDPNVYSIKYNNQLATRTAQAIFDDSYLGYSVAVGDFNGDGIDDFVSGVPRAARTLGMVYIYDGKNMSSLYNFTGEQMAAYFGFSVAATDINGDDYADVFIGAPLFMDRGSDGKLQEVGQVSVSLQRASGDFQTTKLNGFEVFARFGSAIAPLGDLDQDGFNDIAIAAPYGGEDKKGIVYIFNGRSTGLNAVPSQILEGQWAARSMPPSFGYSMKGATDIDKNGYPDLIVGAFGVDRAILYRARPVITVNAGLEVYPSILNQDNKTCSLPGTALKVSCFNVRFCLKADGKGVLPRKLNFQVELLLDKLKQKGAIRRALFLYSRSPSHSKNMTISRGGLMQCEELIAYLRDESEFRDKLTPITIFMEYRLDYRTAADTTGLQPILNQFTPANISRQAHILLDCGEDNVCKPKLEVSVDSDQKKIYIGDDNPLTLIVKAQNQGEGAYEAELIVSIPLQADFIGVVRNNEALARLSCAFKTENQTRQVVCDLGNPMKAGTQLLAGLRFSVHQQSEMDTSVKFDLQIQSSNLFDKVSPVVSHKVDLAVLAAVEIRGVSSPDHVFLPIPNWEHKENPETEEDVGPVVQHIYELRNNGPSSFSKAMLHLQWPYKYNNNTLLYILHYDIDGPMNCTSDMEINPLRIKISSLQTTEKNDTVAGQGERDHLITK
T1 sequence (P06756 891-1048 partner limits assumed): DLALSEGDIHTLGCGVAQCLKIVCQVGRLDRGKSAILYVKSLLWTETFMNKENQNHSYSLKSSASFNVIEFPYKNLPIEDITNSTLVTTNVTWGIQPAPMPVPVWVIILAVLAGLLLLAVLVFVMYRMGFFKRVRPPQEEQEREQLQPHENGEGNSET

increase of β3 phosphorylation as compared to P-1: over 3 fold
Sequence: CQGPRGDKGEC [Mab P-2]
